For 23 molecules, IC50 results are on record in patent US20110319392A1, “Thiazole Sulfonamide And Oxazole Sulfonamide Kinase Inhibitors” (priority 2009, published 2011).

Assay [1] deals with B-Raf (Homo sapiens, UniProt P15056). The assay can be described thus: B-Raf Accelerated MEK ATPase assay (BRAMA), Method A or B. The assay is classed as biochemical. The method, boiled down:
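ADP production, initiated by catalytic activated Raf with unphosphorylated MEK, is followed by NADH oxidation through a PK/LDH coupled system. Method B differs from the kinetic Method A by a single end-point read and 150 nM final MEK.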

Assay [2] deals with A375P F11s tumor cells. The assay can be described thus: Cell growth inhibition assay (CellTiter-Glo), A375P F11s. The assay is classed as cell-based, Human. To be noted: Homo sapiens. The method, boiled down: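 Cells seeded at 500/well (HN5 and HT-29 in high-glucose DMEM/10% FBS; A375P F11s in RPMI/10% FBS with pyruvate; SK-MEL-3 in McCoy's 5A/15% FBS), then exposed next day to 1:3 serial compound dilutions (0.2% DMSO) for 3 days at 37° C. CellTiter-Glo luminescence measured ATP; IC50 derived by 4-parameter fit.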
In general terms: In ATP-based viability assays light output follows the ATP content of the culture.

Where [3] appears, read: Method B: final MEK 150 nM, single end point read.

Sequence of B-Raf (P15056 whole entry): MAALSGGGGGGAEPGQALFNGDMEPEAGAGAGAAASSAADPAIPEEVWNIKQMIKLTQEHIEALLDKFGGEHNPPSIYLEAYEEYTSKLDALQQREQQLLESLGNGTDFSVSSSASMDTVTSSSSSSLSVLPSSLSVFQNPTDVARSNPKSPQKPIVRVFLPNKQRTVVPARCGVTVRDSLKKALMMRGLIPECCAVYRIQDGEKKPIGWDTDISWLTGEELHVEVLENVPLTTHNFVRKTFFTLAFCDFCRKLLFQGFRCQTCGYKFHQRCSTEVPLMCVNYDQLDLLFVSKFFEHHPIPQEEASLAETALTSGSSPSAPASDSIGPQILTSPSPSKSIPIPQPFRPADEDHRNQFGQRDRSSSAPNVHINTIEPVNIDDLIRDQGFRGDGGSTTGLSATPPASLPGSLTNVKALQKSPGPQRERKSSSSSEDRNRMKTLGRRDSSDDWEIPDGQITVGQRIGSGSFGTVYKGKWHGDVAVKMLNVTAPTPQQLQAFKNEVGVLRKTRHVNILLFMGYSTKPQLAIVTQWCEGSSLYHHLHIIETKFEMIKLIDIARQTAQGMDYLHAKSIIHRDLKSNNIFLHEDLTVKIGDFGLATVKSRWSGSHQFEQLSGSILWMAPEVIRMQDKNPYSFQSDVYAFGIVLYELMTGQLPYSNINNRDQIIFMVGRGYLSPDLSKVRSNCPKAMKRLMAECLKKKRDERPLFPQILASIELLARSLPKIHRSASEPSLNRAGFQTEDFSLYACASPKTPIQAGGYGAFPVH

For orientation: IC50 means the concentration needed to halve the response being measured. For the molecule `CC(C)c1nc(-c2cccc(NS(=O)(=O)c3ccccc3)c2)c(-c2ccnc(Nc3ccc(N4CCOCC4)cn3)n2)s1` [Example 92], the values for the IC50 in assay [1] (setting [3]) and in assay [2] were less than 100 nM and 100 to 1000 nM, respectively.
Regarding `CC(C)c1nc(-c2cccc(NS(=O)(=O)c3ccccc3)c2)c(-c2ccnc(Nc3ccc(CC4CCN(CCS(C)(=O)=O)CC4)c(F)c3)n2)s1` [Example 72], the figures for the IC50 in assay [1] (setting [3]) and in assay [2] were less than 100 nM and 100 to 1000 nM, respectively.
For `CC(C)c1nc(-c2cc(F)cc(NS(=O)(=O)c3c(F)cccc3F)c2)c(-c2ccnc(Nc3ccc(N4CCOCC4)nc3)n2)s1` [Example 84], the IC50 in assay [1] (setting [3]) and in assay [2] was less than 100 nM throughout.
Take `CC(C)c1nc(-c2cccc(NS(=O)(=O)c3ccccc3)c2)c(-c2ccnc(Nc3ccc(N4CCN(CCS(C)(=O)=O)CC4)c(F)c3F)n2)s1` [Example 74]: the values for the 50% inhibitory concentration (IC50) in assay [1] (setting [3]) and in assay [2] were less than 100 nM and 100 to 1000 nM, respectively.
For `CC(C)c1nc(-c2cccc(NS(=O)(=O)c3c(F)cccc3F)c2)c(-c2ccnc(Nc3ccc(N4CC[C@@H](O)C4)nc3)n2)s1` [Example 89] the same measures were less than 100 nM and less than 100 nM.
As to `CC(C)c1nc(-c2cc(F)cc(NS(=O)(=O)c3c(F)cccc3F)c2)c(-c2ccnc(Nc3ccc(N4CCOCC4)c(F)c3)n2)s1` [Example 85], the IC50 in assay [1] (setting [3]) and in assay [2] was less than 100 nM throughout.
As for `CC(C)c1nc(-c2cccc(NS(=O)(=O)c3c(F)cccc3F)c2)c(-c2ccnc(Nc3ccc(N4CCCN(CCS(C)(=O)=O)CC4)nc3)n2)s1` [Example 88], the IC50 in assay [1] (setting [3]) and in assay [2] was less than 100 nM throughout.
With `CC(C)c1nc(-c2cccc(NS(=O)(=O)c3c(F)cccc3F)c2)c(-c2ccnc(Nc3cccc(N4CCN(C)CC4)c3)n2)s1` [Example 81], the IC50 in assay [1] (setting [3]) and in assay [2] was less than 100 nM in each case.
With `Cc1cc(N2CCC(N3CCCCC3)CC2)ccc1Nc1nccc(-c2sc(C(C)C)nc2-c2cccc(NS(=O)(=O)c3c(F)cccc3F)c2)n1` [Example 91], the half-inhibitory concentration (IC50) in assay [1] (setting [3]) is less than 100 nM; in assay [2] it was 100 to 1000 nM.
For `COc1cc(N2CCN(CCF)CC2)ccc1Nc1nccc(-c2sc(C(C)C)nc2-c2cccc(NS(=O)(=O)c3c(F)cccc3F)c2)n1` [Example 79] the same measures were less than 100 nM and 100 to 1000 nM.
For `CC(C)c1nc(-c2cccc(NS(=O)(=O)c3c(F)cccc3F)c2)c(-c2ccnc(Nc3cc(F)c(N4CCN(CCS(C)(=O)=O)CC4)cc3F)n2)s1` [Example 87] the same measures were less than 100 nM and less than 100 nM.
Regarding `CC(C)c1nc(-c2ccc(F)c(NS(=O)(=O)c3c(F)cccc3F)c2)c(-c2ccnc(Nc3ccc(N4CCN(CCS(C)(=O)=O)CC4)c(F)c3)n2)s1` [Example 95], the IC50 was less than 100 nM in assay [1] (setting [3]) and 100 to 1000 nM in assay [2].
On to `CC(C)c1nc(-c2cccc(NS(=O)(=O)c3c(F)cccc3F)c2)c(-c2ccnc(Nc3ccc(N4CCN(CCO)CC4)nc3)n2)s1` [Example 80], for which the IC50 in assay [1] (setting [3]) and in assay [2] was less than 100 nM throughout.
As to `CC(C)c1nc(-c2cc(F)cc(NS(=O)(=O)c3ccc(F)cc3)c2)c(-c2ccnc(Nc3ccc(N4CCOCC4)c(F)c3)n2)s1` [Example 83], the values for the IC50 in assay [1] (setting [3]) and in assay [2] were less than 100 nM and 100 to 1000 nM, respectively.
For `CC(C)c1nc(-c2cccc(NS(=O)(=O)c3c(F)cccc3F)c2)c(-c2ccnc(Nc3ccc(N4CCCNCC4)nc3)n2)s1` [Example 82] the same measures were less than 100 nM and less than 100 nM.
For `CC(C)c1nc(-c2cccc(NS(=O)(=O)c3ccccc3)c2)c(-c2ccnc(Nc3ccc(F)c(N4CCN(CCS(C)(=O)=O)CC4)c3)n2)s1` [Example 73] the same measures were less than 100 nM and less than 100 nM.
For `CC(=O)N1CCN(c2ccc(Nc3nccc(-c4sc(C(C)C)nc4-c4cccc(NS(=O)(=O)c5cc(F)ccc5F)c4)n3)cn2)CC1` [Example 96] the same measures were less than 100 nM and less than 100 nM.
Consider `C=C(C)c1nc(-c2cccc(NS(=O)(=O)c3c(F)cccc3F)c2)c(-c2ccnc(Nc3ccc(N4CCN(CCF)CC4)c(F)c3)n2)s1` [Example 93], for which the IC50 in assay [1] (setting [3]) was less than 100 nM; in assay [2], 100 to 1000 nM.
Take `CCc1nc(-c2cccc(NS(=O)(=O)c3ccccc3)c2)c(-c2ccnc(Nc3ccc(OC)c(N4CCN(CCS(C)(=O)=O)CC4)c3)n2)s1` [Example 5, N-[3-(2-Ethyl-5-{2-[(4-(methyloxy)-3-{4-[2-(methylsulfonyl)ethyl]-1-piperazinyl}phenyl)amino]-4-pyrimidinyl}-1,3-thiazol-4-yl)phenyl]benzenesulfonamide]: the IC50 in assay [1] (Method A) and in assay [2] was less than 100 nM throughout.
Take `CC(C)c1nc(-c2cccc(NS(=O)(=O)c3c(F)cccc3F)c2)c(-c2ccnc(Nc3ccc(N4CCN(C(C)C)CC4)cc3O)n2)s1` [Example 78]: the IC50 in assay [1] (setting [3]) and in assay [2] was less than 100 nM in each case.
On to `CCc1nc(-c2cccc(NS(=O)(=O)c3ccccc3)c2)c(-c2ccnc(Nc3ccc(N4CCOCC4)c(F)c3)n2)s1` [Example 4], for which the half-maximal inhibitory concentration (IC50) in assay [1] (Method A) and in assay [2] was 100 to 1000 nM in each case.
For the molecule `CC(=O)N1CCc2cc(Nc3nccc(-c4sc(C(C)C)nc4-c4cccc(NS(=O)(=O)c5ccccc5)c4)n3)ccc21` [Example 71], the concentration for half-maximal inhibition (IC50) in assay [1] (setting [3]) and in assay [2] was less than 100 nM in each case.
With `CCc1nc(-c2cccc(NS(=O)(=O)c3ccccc3)c2)c(-c2ccnc(Nc3ccc(N4CCN(C(C)=O)CC4)nc3)n2)s1` [Example 3, N-{3-[5-(2-{[6-(4-Acetyl-1-piperazinyl)-3-pyridinyl]amino}-4-pyrimidinyl)-2-ethyl-1,3-thiazol-4-yl]phenyl}benzenesulfonamide], the IC50 in assay [1] (setting [3]) and in assay [2] was less than 100 nM each time.
